Key:
Format in all cases: in vivo, mice
hematopoietic stem cells = assay: Hematopoietic stem cell number in bone marrow after 5FU injury with ABC294640 treatment; conditions: vs solvent control
Experimental: In order to calculate the number of hematopoietic stem cells in mice, statistical quantification was performed for the number of hematopoietic stem cells using the molecular marker system Lin^−Sca1^+c-Kit^+CD150^+CD48^−, in combination with flow cytometry. Briefly, 2 million bone marrow cells were resuspended in 100 μl PBS, and 2 μl of a combination of anti-Lin, anti-Sca-1, anti-c-Kit, anti-CD150 and anti-CD48 was added. Samples were kept on ice for 1 h and washed with 1 ml of PBS, then resuspended with […] of PBS for flow cytometry analysis to determine the number of hematopoietic stem cells in the mouse bone marrow. T-test analysis was carried out using Graphpad6.0, and the difference was considered statistically significant when P<0.05. Twenty 8-week-old C57 mice (purchased from Laboratory Animal Center, Sun Yat-sen University) were injected intraperitoneally with 5FU at a dose of 150 mg/kg, respectively. After 5FU treatment, control mice (10 mice) were injected with a solvent control solution (1:1 physiological saline: PEG400) and the SphK2 inhibitor treatment mice (10 mice) were injected with the SphK2 inhibitor ABC294640. Briefly, 5FU was injected on day 1, and the inhibitor and solvent control solution were injected on day 2 and every other day, for five times in total. […] The SphK2 inhibitor ABC294640 was purchased from Selleck and dissolved in dimethyl sulfoxide (DMSO), it was then diluted with a mixture solution of polyethylene glycol 400 (PEG400) and physiological saline (1:1), and was injected to the mice with a dose of 10 mg/kg. T-test analysis was carried out using Graphpad6.0, and the differences were considered statistically significant when P<0.05.

platelets = assay: Platelet recovery in peripheral blood after 5FU; conditions: after 5FU 150 mg/kg once; ABC294640 10 mg/kg every other day; days 0, 1, 5, 11; vs solvent control; FIG. 6
Experimental: Preparation of the SphK2 inhibitor was as described in Example 4. Twelve 8-week-old C57 mice purchased from Laboratory Animal Center, Sun Yat-sen University were selected and divided evenly into two groups. The mice were intraperitoneally injected with 5FU at a dose of 150 mg/kg once. The injection of the inhibitor ABC294640 and the solvent control solution was as described in Example 4, which started from the day after 5-fluorouracil injection, followed by injections once every other day, at a dose of 10 mg/kg, until the end of the experiment. Periphery blood (PB) of each mouse was separately collected to determine white blood cell (WBC) counts 0, 1, 5 and 11 days after 5-FU administration. T-test analysis was carried out using Graphpad6.0, and differences were considered statistically significant when P<0.05.
The experiment was conducted as described in Example 5. Periphery blood (PB) of each mouse was separately collected to determine platelets (PLT) counts 0, 1, 5 and 11 days after 5-FU administration. T-test analysis was carried out using Graphpad6.0, and differences were considered statistically significant when P<0.05.

[1] = Survival after serial 5FU challenges every 7 days with ABC294640 every other day; conditions: vs control, FIG. 30
Experimental: FIG. 30. illustrates the survival of C57BL/6J mice after serious 5FU treatment every 7 days and ABC294640 treatment every other day (n=10 mice group).
Repopulation analyses was also performed to investigate whether ABC294640 treatment functionally promotes HSC regeneration after chemotherapeutic stress.

[2] = day 14 post 5FU treatment, FIG. 26

With `O=C(NCc1ccncc1)C12CC3CC(C1)CC(c1ccc(Cl)cc1)(C3)C2` [ABC294640, 3-(4-chloro-phenyl)-adamantane-1-carboxylic acid (pyridin-4-ylmethyl)-amide] the “number of hematopoietic stem cells in bone marrow” value (hematopoietic stem cells; after 5FU 150 mg/kg i.p., ABC294640 10 mg/kg every other day x5, day 12, **P<0.01, FIG. 4) was “increased significantly”, the “increase of CD150 HSC pool size” value (hematopoietic stem cells; [2]) was “about 2.2 fold” and the “increase of LT-HSC pool size” value (hematopoietic stem cells; [2]) was “about 2.2 fold”. The “increase of ST-HSC pool size” value (hematopoietic stem cells; [2]) was “about 1.6 fold”, the “number of platelets from the peripheral blood” value (platelets) was “significantly increased” and the survival [1] was “notably increased survival”.

From patent US20210369691A1, “METHODS AND COMPOSITIONS FOR IMPROVING BONE MARROW HEMATOPOIETIC FUNCTIONS” (Sun Yat-Sen University, priority 2018, published 2021)
